Assay results taken from patent US9302999B2, “Substituted triazoles as herbicides” (E. I. DU PONT DE NEMOURS AND COMPANY, priority 2012, dated 2016).

Columns and labels:
Type in all cases: in vivo
[1] = test system: barnyardgrass (Echinochloa crus-galli); experiment: Test A pre-/postemergence: barnyardgrass
Method in brief: (§1)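 Plants in loam–sand blend were treated with test chemicals in non-phytotoxic solvent with surfactant, either as preemergence directed soil spray or postemergence at 2–10 cm, one- to two-leaf stage. After about ten days in greenhouse, injury was rated visually against untreated controls on a 0–100 scale (100 = complete control).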

[2] = test system: crabgrass, large (large crabgrass, Digitaria sanguinalis); experiment: Test A pre-/postemergence: crabgrass, large
Method in brief: as §1

[3] = test system: foxtail, giant (giant foxtail, Setaria faberii); experiment: Test A pre-/postemergence: foxtail, giant
Method in brief: as §1

[4] = test system: morningglory (Ipomoea spp.); experiment: Test A pre-/postemergence: morningglory
Method in brief: as §1

[5] = test system: pigweed (Amaranthus retroflexus); experiment: Test A pre-/postemergence: pigweed
Method in brief: as §1

[6] = test system: velvetleaf (Abutilon theophrasti); experiment: Test A pre-/postemergence: velvetleaf
Method in brief: as §1

[7] = test system: wheat (Triticum aestivum); experiment: Test A pre-/postemergence: wheat
Method in brief: as §1

corn (Zea mays) = experiment: Test A pre-/postemergence: corn
Method in brief: as §1

rice (Oryza sativa) = experiment: Test C flooded paddy test: rice; conditions: scale 0 to 100 (0 no effect, 100 complete control)
Method in brief: (§2)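 Greenhouse plants treated at the 2-leaf stage by dosing the flood water (3 cm depth, maintained) were compared with controls after 13 to 15 days and rated 0 to 100, where 100 means complete control; a dash marks no test result.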

[8] = test system: sedge, umbrella (small-flower umbrella sedge, Cyperus difformis); experiment: Test C flooded paddy test: sedge, umbrella; conditions: scale 0 to 100 (0 no effect, 100 complete control)
Method in brief: as §2

[9] = test system: ducksalad (Heteranthera limosa); experiment: Test C flooded paddy test: ducksalad; conditions: scale 0 to 100 (0 no effect, 100 complete control)
Method in brief: as §2

[10] = test system: barnyardgrass (Echinochloa crus-galli); experiment: Test C flooded paddy test: barnyardgrass; conditions: scale 0 to 100 (0 no effect, 100 complete control)
Method in brief: as §2

[11] = Postemergence, 1000 g ai/ha, visual rating on 0 to 100 scale (0 no effect, 100 complete control), approximately ten days
[12] = Preemergence, 1000 g ai/ha, 0 to 100 scale, 0 is no effect, 100 is complete control
[13] = Flood (flooded paddy test), 125 g ai/ha, visual rating after 13 to 15 days
[14] = Flood (flooded paddy test), 250 g ai/ha, visual rating after 13 to 15 days
[15] = Postemergence, 125 g ai/ha, 0 to 100 scale, 0 is no effect, 100 is complete control
[16] = Postemergence, 500 g ai/ha, visual rating on 0 to 100 scale (0 no effect, 100 complete control), approximately ten days
[17] = Preemergence, 125 g ai/ha, 0 to 100 scale (0 no effect, 100 complete control)
[18] = Preemergence, 500 g ai/ha, 0 to 100 scale, 0 is no effect, 100 is complete control
[19] = Preemergence, 125 g ai/ha, 0 to 100 scale where 0 is no effect and 100 is complete control
[20] = Flood (flooded paddy test), 62 g ai/ha, visual rating after 13 to 15 days

SMILES: CCc1nn(-c2ccc(C(F)(F)F)cc2)nc1Cn1ccc(C(F)(F)F)n1 [Compound 118]
- Barnyardgrass plant response rating [1, 11]: 30
- Barnyardgrass plant response rating [1, 12]: 70
- Crabgrass, Large plant response rating [2, 11]: 90
- Crabgrass, Large plant response rating [2, 12]: 100
- Foxtail, Giant plant response rating [3, 11]: 60
- Foxtail, Giant plant response rating [3, 12]: 100
- Morningglory plant response rating [4, 11]: 100
- Morningglory plant response rating [4, 12]: 20
- Pigweed plant response rating [5, 11]: 100
- Pigweed plant response rating [5, 12]: 100
- Velvetleaf plant response rating [6, 11]: 70
- Velvetleaf plant response rating [6, 12]: 10
- Wheat plant response rating [7, 11]: 20
- Wheat plant response rating [7, 12]: 10
- Corn plant response rating (corn (Zea mays); [11]): 30
- Corn plant response rating (corn (Zea mays); [12]): 20
- Plant response rating, Rice (rice (Oryza sativa); [13]): 15
- Plant response rating, Rice (rice (Oryza sativa); [14]): 20
- Plant response rating, Rice (rice (Oryza sativa); Flood, 31 g ai/ha): 0
- Plant response rating, Rice (rice (Oryza sativa); Flood, 62 g ai/ha): 0
- Plant response rating, Sedge, Umbrella [8, 13]: 70
- Plant response rating, Sedge, Umbrella [8, 14]: 75
- Plant response rating, Sedge, Umbrella ([8]; Flood, 31 g ai/ha): 40
- Plant response rating, Sedge, Umbrella ([8]; Flood, 62 g ai/ha): 65
- Plant response rating, Ducksalad [9, 13]: 70
- Plant response rating, Ducksalad [9, 14]: 70
- Plant response rating, Ducksalad ([9]; Flood, 31 g ai/ha): 0
- Plant response rating, Ducksalad ([9]; Flood, 62 g ai/ha): 30
- Plant response rating, Barnyardgrass [10, 13]: 50
- Plant response rating, Barnyardgrass [10, 14]: 65
- Plant response rating, Barnyardgrass ([10]; Flood, 31 g ai/ha): 20
- Plant response rating, Barnyardgrass ([10]; Flood, 62 g ai/ha): 30

SMILES: Cc1nn(-c2ccccc2I)nc1C(=O)c1cccc(C(F)(F)F)c1 [Compound 91]
- Barnyardgrass plant response rating [1, 15]: 0
- Barnyardgrass plant response rating [1, 16]: 10
- Plant response rating, Barnyardgrass [1, 17]: 0
- Plant response rating, Barnyardgrass [1, 18]: 0
- Crabgrass, Large plant response rating [2, 15]: 0
- Crabgrass, Large plant response rating [2, 16]: 10
- Plant response rating, Crabgrass, Large [2, 17]: 0
- Plant response rating, Crabgrass, Large [2, 18]: 0
- Foxtail, Giant plant response rating [3, 15]: 0
- Foxtail, Giant plant response rating [3, 16]: 10
- Plant response rating, Foxtail, Giant [3, 19]: 0
- Plant response rating, Foxtail, Giant [3, 18]: 0
- Morningglory plant response rating [4, 15]: 0
- Morningglory plant response rating [4, 16]: 0
- Plant response rating, Morningglory [4, 19]: 0
- Plant response rating, Morningglory [4, 18]: 0
- Pigweed plant response rating [5, 15]: 10
- Pigweed plant response rating [5, 16]: 30
- Plant response rating, Pigweed [5, 19]: 0
- Plant response rating, Pigweed [5, 18]: 0
- Velvetleaf plant response rating [6, 15]: 0
- Velvetleaf plant response rating [6, 16]: 10
- Plant response rating, Velvetleaf [6, 19]: 0
- Plant response rating, Velvetleaf [6, 18]: 0
- Wheat plant response rating [7, 15]: 0
- Wheat plant response rating [7, 16]: 0
- Plant response rating, Wheat [7, 19]: 0
- Plant response rating, Wheat [7, 18]: 0
- Corn plant response rating (corn (Zea mays); [15]): 10
- Corn plant response rating (corn (Zea mays); [16]): 10
- Plant response rating, Corn (corn (Zea mays); [17]): 0
- Plant response rating, Corn (corn (Zea mays); [18]): 0
- Plant response rating, Rice (rice (Oryza sativa); [13]): 0
- Plant response rating, Rice (rice (Oryza sativa); [14]): 0
- Plant response rating, Rice (rice (Oryza sativa); Flood, 31 g ai/ha): 0
- Plant response rating, Rice (rice (Oryza sativa); Flood, 62 g ai/ha): 0
- Plant response rating, Sedge, Umbrella [8, 13]: 0
- Plant response rating, Sedge, Umbrella [8, 14]: 0
- Plant response rating, Sedge, Umbrella ([8]; Flood, 31 g ai/ha): 0
- Plant response rating, Sedge, Umbrella ([8]; Flood, 62 g ai/ha): 0
- Plant response rating, Ducksalad [9, 13]: 0
- Plant response rating, Ducksalad [9, 14]: 0
- Plant response rating, Ducksalad ([9]; Flood, 31 g ai/ha): 0
- Plant response rating, Ducksalad ([9]; Flood, 62 g ai/ha): 0
- Plant response rating, Barnyardgrass [10, 13]: 0
- Plant response rating, Barnyardgrass [10, 14]: 0
- Plant response rating, Barnyardgrass ([10]; Flood, 31 g ai/ha): 0
- Plant response rating, Barnyardgrass ([10]; Flood, 62 g ai/ha): 0

SMILES: CSc1ccc(-n2nc(C)c(C(=O)c3cccc(C(F)(F)F)c3)n2)cc1 [Compound 93]
- Barnyardgrass plant response rating [1, 15]: 0
- Barnyardgrass plant response rating [1, 16]: 10
- Plant response rating, Barnyardgrass [1, 17]: 0
- Plant response rating, Barnyardgrass [1, 18]: 0
- Crabgrass, Large plant response rating [2, 15]: 10
- Crabgrass, Large plant response rating [2, 16]: 20
- Plant response rating, Crabgrass, Large [2, 17]: 0
- Plant response rating, Crabgrass, Large [2, 18]: 0
- Foxtail, Giant plant response rating [3, 15]: 10
- Foxtail, Giant plant response rating [3, 16]: 10
- Plant response rating, Foxtail, Giant [3, 19]: 0
- Plant response rating, Foxtail, Giant [3, 18]: 0
- Morningglory plant response rating [4, 15]: 0
- Morningglory plant response rating [4, 16]: 10
- Plant response rating, Morningglory [4, 19]: 0
- Plant response rating, Morningglory [4, 18]: 0
- Pigweed plant response rating [5, 15]: 10
- Pigweed plant response rating [5, 16]: 20
- Plant response rating, Pigweed [5, 19]: 0
- Plant response rating, Pigweed [5, 18]: 0
- Velvetleaf plant response rating [6, 15]: 10
- Velvetleaf plant response rating [6, 16]: 20
- Plant response rating, Velvetleaf [6, 19]: 0
- Plant response rating, Velvetleaf [6, 18]: 0
- Wheat plant response rating [7, 15]: 0
- Wheat plant response rating [7, 16]: 0
- Plant response rating, Wheat [7, 19]: 0
- Plant response rating, Wheat [7, 18]: 0
- Corn plant response rating (corn (Zea mays); [15]): 10
- Corn plant response rating (corn (Zea mays); [16]): 10
- Plant response rating, Corn (corn (Zea mays); [17]): 0
- Plant response rating, Corn (corn (Zea mays); [18]): 0
- Plant response rating, Rice (rice (Oryza sativa); [13]): 0
- Plant response rating, Rice (rice (Oryza sativa); [14]): 0
- Plant response rating, Rice (rice (Oryza sativa); Flood, 31 g ai/ha): 0
- Plant response rating, Rice (rice (Oryza sativa); Flood, 62 g ai/ha): 0
- Plant response rating, Sedge, Umbrella [8, 13]: 0
- Plant response rating, Sedge, Umbrella [8, 14]: 0
- Plant response rating, Sedge, Umbrella ([8]; Flood, 31 g ai/ha): 0
- Plant response rating, Sedge, Umbrella ([8]; Flood, 62 g ai/ha): 0
- Plant response rating, Ducksalad [9, 13]: 0
- Plant response rating, Ducksalad [9, 14]: 0
- Plant response rating, Ducksalad ([9]; Flood, 31 g ai/ha): 0
- Plant response rating, Ducksalad ([9]; Flood, 62 g ai/ha): 0
- Plant response rating, Barnyardgrass [10, 13]: 0
- Plant response rating, Barnyardgrass [10, 14]: 0
- Plant response rating, Barnyardgrass ([10]; Flood, 31 g ai/ha): 0
- Plant response rating, Barnyardgrass ([10]; Flood, 62 g ai/ha): 0

SMILES: COc1nn(-c2ccc(C(F)(F)F)cc2)nc1C(=O)c1ccnc(C(F)(F)F)c1 [Compound 75]
- Barnyardgrass plant response rating [1, 15]: 0
- Barnyardgrass plant response rating [1, 16]: 10
- Plant response rating, Barnyardgrass [1, 17]: 10
- Plant response rating, Barnyardgrass [1, 18]: 20
- Crabgrass, Large plant response rating [2, 15]: 10
- Crabgrass, Large plant response rating [2, 16]: 20
- Plant response rating, Crabgrass, Large [2, 17]: 20
- Plant response rating, Crabgrass, Large [2, 18]: 70
- Foxtail, Giant plant response rating [3, 15]: 10
- Foxtail, Giant plant response rating [3, 16]: 20
- Plant response rating, Foxtail, Giant [3, 17]: 50
- Plant response rating, Foxtail, Giant [3, 18]: 90
- Morningglory plant response rating [4, 15]: 0
- Morningglory plant response rating [4, 16]: 30
- Pigweed plant response rating [5, 15]: 30
- Pigweed plant response rating [5, 16]: 60
- Plant response rating, Pigweed [5, 17]: 30
- Plant response rating, Pigweed [5, 18]: 40
- Velvetleaf plant response rating [6, 15]: 10
- Velvetleaf plant response rating [6, 16]: 10
- Plant response rating, Velvetleaf [6, 17]: 0
- Plant response rating, Velvetleaf [6, 18]: 0
- Wheat plant response rating [7, 15]: 0
- Wheat plant response rating [7, 16]: 0
- Plant response rating, Wheat [7, 17]: 0
- Plant response rating, Wheat [7, 18]: 10
- Corn plant response rating (corn (Zea mays); [15]): 0
- Corn plant response rating (corn (Zea mays); [16]): 10
- Plant response rating, Corn (corn (Zea mays); [17]): 0
- Plant response rating, Corn (corn (Zea mays); [18]): 0
- Plant response rating, Rice (rice (Oryza sativa); [20]): 0
- Plant response rating, Rice (rice (Oryza sativa); [13]): 0
- Plant response rating, Rice (rice (Oryza sativa); [14]): 0
- Plant response rating, Rice (rice (Oryza sativa); Flood, 31 g ai/ha): 0
- Plant response rating, Sedge, Umbrella [8, 20]: 0
- Plant response rating, Sedge, Umbrella [8, 13]: 0
- Plant response rating, Sedge, Umbrella [8, 14]: 0
- Plant response rating, Sedge, Umbrella ([8]; Flood, 31 g ai/ha): 0
- Plant response rating, Ducksalad [9, 20]: 0
- Plant response rating, Ducksalad [9, 13]: 0
- Plant response rating, Ducksalad [9, 14]: 0
- Plant response rating, Ducksalad ([9]; Flood, 31 g ai/ha): 0
- Plant response rating, Barnyardgrass [10, 20]: 0
- Plant response rating, Barnyardgrass [10, 13]: 0
- Plant response rating, Barnyardgrass [10, 14]: 0
- Plant response rating, Barnyardgrass ([10]; Flood, 31 g ai/ha): 0
